Test results published in patent US9107926B2, “Mutant selectivity and combinations of a phosphoinositide 3-kinase inhibitor compound and chemotherapeutic agents for the treatment of cancer” (Genentech, Inc., priority 2012, dated 2015).

Columns and labels:
Assay type in all cases: cell-based
FUOV1 = assay: CellTiter-Glo cell proliferation assay; conditions: Ovarian, WT
Description: (§1) Cell Culture Medium: RPMI or DMEM high glucose, 10% Fetal Bovine Serum, 2 mM L-Glutamine, P/S. Incubate O/N (overnight) at 37° C., 5% CO2.
(§2) Drug Addition to Cells, Cell Plate (1:10 dilution): Add 6 μl of media+compound directly to cells (54 μl of media on the cells already). Incubate 3 days at 37° C., 5% CO2 in an incubator that will not be opened often.
(§3) Day 5—Develop Plates, Thaw Cell Titer Glo Buffer at room temperature: Remove Cell Plates from 37° C. and equilibrate to room temperature for about 30 minutes. Add Cell Titer-Glo® Buffer to Cell Titer-Glo® Substrate (bottle to bottle). Add 30 μl Cell Titer-Glo® Reagent (Promega cat.#G7572) to each well of cells. Place on plate shaker for about 30 minutes. Read luminescence on Analyst HT Plate Reader (half second per well).

H2009 = assay: CellTiter-Glo cell proliferation assay; conditions: Homo sapiens, NCI-H2009, Lung(NSCLC), K-RAS
EBC-1 = assay: CellTiter-Glo cell proliferation assay; conditions: Homo sapiens, Lung(NSCLC), K-RAS
H1703 = assay: CellTiter-Glo cell proliferation assay; conditions: Homo sapiens, NCI-H1703, Lung(NSCLC), WT
SW620 = assay: CellTiter-Glo cell proliferation assay; conditions: Homo sapiens, SW-620, Colon, K-RAS
BT474 = assay: CellTiter-Glo cell proliferation assay; conditions: Homo sapiens, BT-474, Breast, HER2 Amplified
T47D = assay: CellTiter-Glo cell proliferation assay; conditions: Homo sapiens, Breast, Kinase-HET.1047H > R, HET.350D > N
Description: as §1, §2, §3

H647 = assay: CellTiter-Glo cell proliferation assay; conditions: Homo sapiens, NCI-H647, Lung(NSCLC), K-RAS
HCT116 = assay: CellTiter-Glo cell proliferation assay; conditions: Homo sapiens, HCT-116, Colon, KRAS/HET.1047H > R
ZR75-30 = assay: CellTiter-Glo cell proliferation assay; conditions: Homo sapiens, ZR-75-30, Breast, WT
CAL120 = assay: CellTiter-Glo cell proliferation assay; conditions: Homo sapiens, CAL-120, Breast, WT
Description: as §1, §2, §3

SW1783 = assay: CellTiter-Glo cell proliferation assay; conditions: Homo sapiens, Glioma, PTEN
MCF7-neo/HER2 = assay: CellTiter-Glo cell proliferation assay; conditions: Breast, Helical-HET.545E > K
Description: as §1, §2, §3

SW948 = assay: CellTiter-Glo cell proliferation assay; conditions: Homo sapiens, Colon, KRAS/HOM.542E > K
H522 = assay: CellTiter-Glo cell proliferation assay; conditions: Homo sapiens, NCI-H522, Lung(NSCLC), WT
EFM-192A = assay: CellTiter-Glo cell proliferation assay; conditions: Breast, HET.420C > R
cancer cell lines = assay: cell proliferation assays across cancer cell lines (FIGS. 1-3, 12)
From the text: EC50 values were established for the experiments.

IGROV1 = assay: CellTiter-Glo cell proliferation assay; conditions: Homo sapiens, IGROV-1, Ovarian, Kinase-HET.1069O > W
Description: as §1, §2, §3

IPC298 = assay: CellTiter-Glo cell proliferation assay; conditions: Homo sapiens, IPC-298, Melanoma, NRAS Q61L
H1793 = assay: CellTiter-Glo cell proliferation assay; conditions: Homo sapiens, NCI-H1793, Lung(NSCLC), WT
MDA-MB-453 = assay: CellTiter-Glo cell proliferation assay; conditions: Homo sapiens, Breast, Kinase-HET.1047H > R, HET.350D > N
ABC-1 = assay: CellTiter-Glo cell proliferation assay; conditions: Homo sapiens, Lung(NSCLC), WT
Detroit562 = assay: CellTiter-Glo cell proliferation assay; conditions: Homo sapiens, Detroit 562, Head/Neck, Kinase-H1047R
SKOV3 = assay: CellTiter-Glo cell proliferation assay; conditions: Homo sapiens, SK-OV-3, Ovarian, Kinase-HET.1047H > R, HET.350D > N
Description: as §1, §2, §3

HT-29 = assay: CellTiter-Glo cell proliferation assay; conditions: Homo sapiens, Colon, K-RAS
22RV1 = assay: CellTiter-Glo cell proliferation assay; conditions: Homo sapiens, Prostate, Helical-HET.546Q > R
H1568 = assay: CellTiter-Glo cell proliferation assay; conditions: NCI-H1568, Lung(NSCLC), WT
G96 = assay: CellTiter-Glo cell proliferation assay; conditions: Glioma, WT
H23 = assay: CellTiter-Glo cell proliferation assay; conditions: Homo sapiens, NCI-H23, Lung(NSCLC), K-RAS
KP4x1 = assay: CellTiter-Glo cell proliferation assay; conditions: Pancreatic, K-RAS
Calu-6 = assay: CellTiter-Glo cell proliferation assay; conditions: Homo sapiens, Lung(NSCLC), K-RAS
A375 = assay: CellTiter-Glo cell proliferation assay; conditions: Homo sapiens, A-375, Melanoma, B-Raf
U-118MG = assay: CellTiter-Glo cell proliferation assay; conditions: Homo sapiens, Glioma, PTEN
A2058 = assay: CellTiter-Glo cell proliferation assay; conditions: Homo sapiens, Melanoma, PTEN/B-Raf
H417 = assay: CellTiter-Glo cell proliferation assay; conditions: Homo sapiens, NCI-H417, Lung(SC), Helical-HET.546Q > K, HOM.391I > M
H596 = assay: CellTiter-Glo cell proliferation assay; conditions: Homo sapiens, NCI-H596, Lung(NSCLC), Helical-HET.545E > K, HET.997L > P
KM12 = assay: CellTiter-Glo cell proliferation assay; conditions: Homo sapiens, Colon, PTEN
SW403 = assay: CellTiter-Glo cell proliferation assay; conditions: Homo sapiens, SW-403, Colon, KRAS/HET.546Q > K
EVSA-T = assay: CellTiter-Glo cell proliferation assay; conditions: Homo sapiens, Breast, PTEN
PC3 = assay: CellTiter-Glo cell proliferation assay; conditions: Homo sapiens, PC-3, Prostate, PTEN
H2122 = assay: CellTiter-Glo cell proliferation assay; conditions: Homo sapiens, NCI-H2122, Lung(NSCLC), K-RAS

With Cc1nc(-c2cn3c(n2)-c2ccc(-c4cnn(C(C)(C)C(N)=O)c4)cc2OCC3)n(C(C)C)n1 [GDC-0032, 2-(4-(2-(1-isopropyl-3-methyl-1H-1,2,4-triazol-5-yl)-5,6-dihydrobenzo[f]imidazo[1,2-d][1,4]oxazepin-9-yl)-1H-pyrazol-1-yl)-2-methylpropanamide] the EC50 (FUOV1) was 62 nM, the EC50 (H2009) was 710 nM and the EC50 (EBC-1) was 1660 nM. It also gave an EC50 (H1703) of 136 nM, an EC50 (SW620) of 10000 nM and an EC50 (BT474) of 84 nM. It also gave an EC50 (T47D) of 45 nM, an EC50 (H647) of 9020 nM and an EC50 (HCT116) of 897 nM. The EC50 (ZR75-30) was 21 nM, the EC50 (CAL120) was 3840 nM and the EC50 (SW1783) was 3110 nM. It also gave an EC50 (MCF7-neo/HER2) of 178 nM, an EC50 (SW948) of 62 nM and an EC50 (H522) of 10000 nM. The EC50 (EFM-192A) was 101 nM, the “sensitivity of cancer cell lines with HER2 amplification versus those without HER2 amplification” value (cancer cell lines; EC50, cell proliferation assays) was “about 44 times” and the “potency against PIK3CA mutant and HER2+ cells (comparison)” value (cancer cell lines; FIGS. 1A, 1B, 2A, 2B) was “more potent against PIK3CA mutant cells and HER2+ breast cancer cells than GDC-0941”. For the same compound, the EC50 (IGROV1) was 31 nM, the EC50 (IPC298) was 10000 nM and the EC50 (H1793) was 2020 nM. The EC50 (MDA-MB-453) was 44 nM, the EC50 (ABC-1) was 234 nM and the EC50 (Detroit562) was 58 nM. For the same compound, the EC50 (SKOV3) was 76 nM, the EC50 (HT-29) was 75 nM and the EC50 (22RV1) was 50 nM. The EC50 (H1568) was 10000 nM, the EC50 (G96) was 201 nM and the EC50 (H23) was 2740 nM. The EC50 (KP4x1) was 2940 nM, the EC50 (Calu-6) was 10000 nM and the EC50 (A375) was 10000 nM. The EC50 (U-118MG) was 3200 nM, the EC50 (A2058) was 9240 nM and the EC50 (H417) was 1280 nM. For the same compound, the EC50 (H596) was 58 nM, the EC50 (KM12) was 4690 nM and the EC50 (SW403) was 143 nM. It also gave an EC50 (EVSA-T) of 1120 nM, an EC50 (PC3) of 864 nM and an EC50 (H2122) of 366 nM.
